Several values for one entry are separate records, joined by “and”; a condition that tells them apart may be missing. Equal entries are not always repeated. Toxic doses and inconclusive results are not listed.
Test system: L1210 leukemia ip in BDF1 mice, survival T/C
Assay: NCI In Vivo Anticancer Drug Screen. Data for tumor model L1210 Leukemia (intraperitoneal) in B6D2F1 (BDF1) mice
Details: endpoint: mean survival time, higher = longer survival
Procedure, shortened: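 Ratio derived from survival: compound-dosed mice over vehicle-dosed mice, all bearing a transplantable tumor.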

[1] = dose: 100.0 mg/kg/injection, schedule: Q04DX003 (ip), vehicle: saline
[2] = dose: 200.0 mg/kg/injection, schedule: Q04DX003 (ip), vehicle: saline
[3] = dose: 400.0 mg/kg/injection, schedule: Q04DX003 (ip), vehicle: saline
[4] = dose: 50.0 mg/kg/injection, schedule: Q01DX009 (ip), vehicle: Klucel (hydroxypropylcellulose) (HPC)
[5] = dose: 100.0 mg/kg/injection, schedule: Q01DX009 (ip), vehicle: Klucel (hydroxypropylcellulose) (HPC)
[6] = dose: 200.0 mg/kg/injection, schedule: Q01DX009 (ip), vehicle: Klucel (hydroxypropylcellulose) (HPC)
[7] = dose: 100.0 mg/kg/injection, schedule: Q01DX001 (ip), vehicle: saline
[8] = dose: 100.0 mg/kg/injection, schedule: Q01DX009 (ip), vehicle: saline
[9] = dose: 200.0 mg/kg/injection, schedule: Q01DX001 (ip), vehicle: saline
[10] = dose: 200.0 mg/kg/injection, schedule: Q01DX009 (ip), vehicle: saline
[11] = dose: 400.0 mg/kg/injection, schedule: Q01DX001 (ip), vehicle: saline
[12] = dose: 400.0 mg/kg/injection, schedule: Q01DX009 (ip), vehicle: saline
[13] = dose: 100.0 mg/kg/injection, schedule: Q04DX002 (ip), vehicle: Klucel (hydroxypropylcellulose) (HPC)
[14] = dose: 200.0 mg/kg/injection, schedule: Q04DX002 (ip), vehicle: Klucel (hydroxypropylcellulose) (HPC)
[15] = dose: 400.0 mg/kg/injection, schedule: Q04DX002 (ip), vehicle: Klucel (hydroxypropylcellulose) (HPC)
[16] = dose: 400.0 mg/kg/injection, schedule: Q01DX009 (ip), vehicle: Klucel (hydroxypropylcellulose) (HPC)
[17] = dose: 25.0 mg/kg/injection, schedule: Q01DX009 (ip), vehicle: saline
[18] = dose: 25.0 mg/kg/injection, schedule: Q04DX003 (ip), vehicle: saline
[19] = dose: 50.0 mg/kg/injection, schedule: Q01DX009 (ip), vehicle: saline
[20] = dose: 50.0 mg/kg/injection, schedule: Q04DX003 (ip), vehicle: saline

Question: What does the source list for `CC(=O)Nc1cc(C(C)=O)ccc1O`?
Answer: T/C (dose: 100.0 mg/kg/injection, schedule: Q04DX003 (ip), vehicle: Klucel (hydroxypropylcellulose) (HPC)): 106 % of control; T/C (dose: 200.0 mg/kg/injection, schedule: Q04DX003 (ip), vehicle: Klucel (hydroxypropylcellulose) (HPC)): 98 % of control; T/C (dose: 400.0 mg/kg/injection, schedule: Q04DX003 (ip), vehicle: Klucel (hydroxypropylcellulose) (HPC)): 103 % of control

Question: What does the source list for `CC(CO)(CO)[N+](=O)[O-]`?
Answer: T/C [1]: 101 % of control; T/C [2]: 96 % of control; T/C [3]: 93 % of control

Question: What does the source list for `CC(=O)CSc1nc2ccccc2s1`?
Answer: T/C [4]: 95 % of control; T/C [5]: 104 % of control; T/C [6]: 111 % of control

Question: `O=C1C2=C(NC1(c1ccccc1)c1ccccc1)c1ccccc1C2` was tested. Which T/C [4] did it give?
Answer: 101 % of control

Question: And the T/C [5]?
Answer: 105 % of control

Question: And the T/C [6]?
Answer: 97 % of control

Question: For `NCCNCCNCCN`, which T/C (dose: 50.0 mg/kg/injection, schedule: Q01DX001 (ip), vehicle: saline) is on record?
Answer: 95 % of control

Question: And the T/C [7]?
Answer: 95 % of control

Question: What about the T/C [8] of the same molecule?
Answer: 93 % of control

Question: What about the T/C [1] of the same molecule?
Answer: 102 % of control

Question: What about the T/C [9] of the same molecule?
Answer: 98 % of control

Question: And the T/C [10]?
Answer: 93 % of control

Question: What about the T/C [2] of the same molecule?
Answer: 105 % of control

Question: And the T/C [11]?
Answer: 101 % of control

Question: And the T/C [12]?
Answer: 109 % of control

Question: What about the T/C [3] of the same molecule?
Answer: 94 % of control

Question: With `Cc1cc(C)cc(OC(=S)N(C)C)c1` as the molecule, how does the T/C (dose: 100.0 mg/kg/injection, schedule: Q01DX001 (ip), vehicle: Klucel (hydroxypropylcellulose) (HPC)) read?
Answer: 93 % of control

Question: And the T/C (dose: 200.0 mg/kg/injection, schedule: Q01DX001 (ip), vehicle: Klucel (hydroxypropylcellulose) (HPC))?
Answer: 98 % of control

Question: What about the T/C (dose: 400.0 mg/kg/injection, schedule: Q01DX001 (ip), vehicle: Klucel (hydroxypropylcellulose) (HPC)) of the same molecule?
Answer: 95 % of control

Question: `OCC(O)C(O)C(O)CO` (configuration not stated) was tested. Which T/C (dose: 100.0 mg/kg/injection, schedule: Q04DX002 (ip), vehicle: saline) did it give?
Answer: 107 % of control

Question: And the T/C (dose: 200.0 mg/kg/injection, schedule: Q04DX002 (ip), vehicle: saline)?
Answer: 104 % of control

Question: What about the T/C (dose: 400.0 mg/kg/injection, schedule: Q04DX002 (ip), vehicle: saline) of the same molecule?
Answer: 96 % of control

Question: Which results are given for `CC(=O)OCC(C)CCC(=O)C(C)C1C(=O)CC2CC3CC(OC(C)=O)CCC3(C)CC21C` (configuration not stated)?
Answer: T/C [13]: 96 % of control; T/C [14]: 100 % of control; T/C [15]: 96 % of control

Question: What does the source list for `COc1ccccc1C1CCCCCC1O` (configuration not stated)?
Answer: T/C [8]: 98 % of control; T/C [10]: 98 % of control; T/C [12]: 98 % of control

Question: What does the source list for `CC(=O)OC1COC(n2cnc3c(=S)nc[nH]c32)C(OC(C)=O)C1OC(C)=O` (configuration not stated)?
Answer: T/C (dose: 100.0 mg/kg/injection, schedule: Q01DX001 (ip), vehicle: other): 107 % of control; T/C [7]: 94 % of control; T/C (dose: 200.0 mg/kg/injection, schedule: Q01DX001 (ip), vehicle: other): 90 % of control; T/C [9]: 93 % of control; T/C (dose: 400.0 mg/kg/injection, schedule: Q01DX001 (ip), vehicle: other): 96 % of control; T/C [11]: 96 % of control

Question: How did the T/C (dose: 75.0 mg/kg/injection, schedule: Q01DX009 (ip), vehicle: Klucel (hydroxypropylcellulose) (HPC)) turn out when `O=C(O)CCc1nc2ccccc2[nH]1` was run?
Answer: 107 % of control

Question: And the T/C (dose: 150.0 mg/kg/injection, schedule: Q01DX009 (ip), vehicle: Klucel (hydroxypropylcellulose) (HPC))?
Answer: 100 % of control

Question: What about the T/C (dose: 300.0 mg/kg/injection, schedule: Q01DX009 (ip), vehicle: Klucel (hydroxypropylcellulose) (HPC)) of the same molecule?
Answer: 104 % of control

Question: `CCOC(=O)c1ccc(NC(=O)Nc2cc(OC)c(Cl)cc2OC)cc1` was tested. Which T/C (dose: 100.0 mg/kg/injection, schedule: Q01DX001 (ip), vehicle: saline with Tween-80) did it give?
Answer: 93 % of control

Question: And the T/C (dose: 100.0 mg/kg/injection, schedule: Q04DX002 (ip), vehicle: saline with Tween-80)?
Answer: 97 % of control

Question: What about the T/C (dose: 200.0 mg/kg/injection, schedule: Q01DX001 (ip), vehicle: saline with Tween-80) of the same molecule?
Answer: 101 % of control

Question: What about the T/C (dose: 200.0 mg/kg/injection, schedule: Q04DX002 (ip), vehicle: saline with Tween-80) of the same molecule?
Answer: 100 % of control

Question: And the T/C (dose: 400.0 mg/kg/injection, schedule: Q01DX001 (ip), vehicle: saline with Tween-80)?
Answer: 88 % of control

Question: What about the T/C (dose: 400.0 mg/kg/injection, schedule: Q04DX002 (ip), vehicle: saline with Tween-80) of the same molecule?
Answer: 97 % of control

Question: Which T/C [5] does the source give for `O=C(COc1cccc([N+](=O)[O-])c1)Nc1ccc(S(=O)(=O)F)cc1` here?
Answer: 102 % of control

Question: And the T/C [6]?
Answer: 100 % of control

Question: What about the T/C [16] of the same molecule?
Answer: 100 % of control

Question: What does the source list for `CN(C)CCOCCOC(=O)N1c2ccccc2Sc2ccccc21`?
Answer: T/C (dose: 6.25 mg/kg/injection, schedule: Q01DX009 (ip), vehicle: saline): 106 % of control; T/C (dose: 6.25 mg/kg/injection, schedule: Q04DX003 (ip), vehicle: saline): 102 % of control; T/C (dose: 12.5 mg/kg/injection, schedule: Q01DX009 (ip), vehicle: saline): 95 % of control; T/C (dose: 12.5 mg/kg/injection, schedule: Q04DX003 (ip), vehicle: saline): 105 % of control; T/C [17]: 97 % of control; T/C [18]: 97 % of control and 98 % of control; T/C [19]: 88 % of control; T/C [20]: 107 % of control and 109 % of control; T/C [8]: 103 % of control; T/C [1]: 102 % of control and 109 % of control

Question: What does the source list for `S=C(Nc1ccc(Cl)cc1)Nc1ccc(Cc2ccc(NC(=S)Nc3ccc(Cl)cc3)cc2)cc1`?
Answer: T/C [13]: 113 % of control; T/C [14]: 106 % of control; T/C [15]: 92 % of control

Question: Which results are given for `O=C(Nc1cccc(C(F)(F)F)c1)Nc1cc([N+](=O)[O-])ccc1Cl`?
Answer: T/C [4]: 96 % of control; T/C [5]: 97 % of control and 108 % of control; T/C [6]: 89 % of control; T/C [16]: 88 % of control

Question: For `CNC(=N)c1ccc(NC(=N)c2ccc(NC(=O)Nc3ccc(NC(=O)Nc4ccc(C(=N)Nc5ccc(C(=N)NC)cc5)cc4)cc3)cc2)cc1`, which T/C (dose: 0.5 mg/kg/injection, schedule: Q01DX015 (ip), vehicle: water) is on record?
Answer: 103 % of control

Question: And the T/C (dose: 1.0 mg/kg/injection, schedule: Q01DX015 (ip), vehicle: water)?
Answer: 116 % of control

Question: What about the T/C (dose: 2.0 mg/kg/injection, schedule: Q01DX015 (ip), vehicle: water) of the same molecule?
Answer: 152 % of control

Question: And the T/C (dose: 5.0 mg/kg/injection, schedule: Q01DX Z (ip), vehicle: water)?
Answer: 156 % of control

Question: And the T/C (dose: 7.5 mg/kg/injection, schedule: Q01DX Z (ip), vehicle: water)?
Answer: 180 % of control

Question: And the T/C (dose: 10.0 mg/kg/injection, schedule: Q01DX Z (ip), vehicle: water)?
Answer: 150 % of control

Question: What about the T/C (dose: 15.0 mg/kg/injection, schedule: Q01DX Z (ip), vehicle: water) of the same molecule?
Answer: 161 % of control

Question: And the T/C (dose: 20.0 mg/kg/injection, schedule: Q01DX Z (ip), vehicle: water)?
Answer: 104 % of control

Question: What about the T/C (dose: 30.0 mg/kg/injection, schedule: Q01DX Z (ip), vehicle: water) of the same molecule?
Answer: 87 % of control

Question: What about the T/C (dose: 35.7 mg/kg/injection, schedule: Q01DX Z (ip), vehicle: water) of the same molecule?
Answer: 101 % of control

Question: What does the source list for `COc1ccc(CN=C(N)CSS(=O)(=O)O)cc1`?
Answer: T/C (dose: 12.5 mg/kg/injection, schedule: Q04DX002 (ip), vehicle: Klucel (hydroxypropylcellulose) (HPC)): 97 % of control; T/C (dose: 25.0 mg/kg/injection, schedule: Q04DX002 (ip), vehicle: Klucel (hydroxypropylcellulose) (HPC)): 97 % of control

Question: What does the source list for `CCN(CC)CCOC(=O)c1cccnc1`?
Answer: T/C [17]: 96 % of control; T/C [18]: 103 % of control; T/C [19]: 94 % of control; T/C [20]: 97 % of control; T/C [8]: 100 % of control; T/C [1]: 97 % of control; T/C [10]: 86 % of control; T/C [2]: 95 % of control; T/C [12]: 107 % of control; T/C [3]: 101 % of control

Question: What does the source list for `CCCCCC(=O)Oc1c(C(C)CC)cc([N+](=O)[O-])cc1[N+](=O)[O-]` (configuration not stated)?
Answer: T/C (dose: 6.25 mg/kg/injection, schedule: Q01DX009 (ip), vehicle: saline with Tween-80): 111 % of control; T/C (dose: 12.5 mg/kg/injection, schedule: Q01DX009 (ip), vehicle: saline with Tween-80): 88 % of control; T/C (dose: 25.0 mg/kg/injection, schedule: Q01DX009 (ip), vehicle: saline with Tween-80): 90 % of control; T/C (dose: 25.0 mg/kg/injection, schedule: Q04DX002 (ip), vehicle: saline with Tween-80): 89 % of control

Question: For `COc1cc(CCO)cc(OC)c1`, which T/C (dose: 100.0 mg/kg/injection, schedule: Q01DX001 (ip), vehicle: carboxymethylcellulose (CMC)) is on record?
Answer: 86 % of control

Question: And the T/C (dose: 200.0 mg/kg/injection, schedule: Q01DX001 (ip), vehicle: carboxymethylcellulose (CMC))?
Answer: 86 % of control

From PubChem BioAssay AID248 (DTP/NCI, 2004)
